A short description of data set [1]: In vitro test on human Caco-2 cells, cellular transport A to B. It is filed as in vitro ADME. The conditions noted are these: human, Caco-2, drug incubated and measured, A to B, 1 or 3 μM, read-out: Papp, the drug after incubation of the drug. The procedure: (§1) The cellular transport from A to B (Apical to Basolateral) of the phosphate compounds of formula (I) and the compounds of formula (I′) (corresponding drugs) is studied in human Caco-2 cells. Each compound is deposited apically at 1 or 3 μM (in duplicate) and then incubated for 120 minutes.
(§2) Several samples are taken during the experiment; • apically: immediately after deposition (t=0) and at 120 minutes • basolaterally: at the end of the experiment (120 minutes)
(§3) The concentrations of the phosphate compound (prodrug) and/or of its hydroxylated homologue (drug) are determined by liquid chromatography coupled with mass spectrometric detection (LC-MS/MS). The limit of quantification for both entities is 2 ng/mL.
(§4) The apparent permeability (Papp) and the predicted absorbed fraction (Fabs) in humans are calculated for the prodrug, for the drug after incubation of the prodrug and for the drug after incubation of the drug (Hubatsch et al, Nat Protoc. 2007; 2(9), 2111-2119).
(§5) The experiment yield, which corresponds to the ratio (in percent) of the total amount of compound found at the end of the experiment versus that incubated, is also calculated.

Another data set relates to human Caco-2 cells. Described as above. Type of data set: in vitro ADME. To be noted: drug incubated and measured, 120 minutes; for Fabs (predicted absorbed fraction in humans), the drug after incubation of the drug: A to B, 1 or 3 μM. On the procedure: as §1, §2, §3, §4, §5
Data set [2] can be described thus: Solubility in aqueous medium buffered to physiological pH (phosphate 0.33M, pH 7.4). Type of data set: physicochemical. The conditions noted are these: phosphate 0.33M, pH = 7.4. The procedure:
The solubilities of the compounds were also measured in a medium buffered to physiological pH (cf. Table 3).

The nature of data set [3]: Pharmacokinetic profile / in vivo conversion after oral administration to SCID mice (plasma, LC-MS/MS). On the set-up: species or system female SCID mice. To be noted: female, mouse, po, lipid formulation (PEG 300/ethanol/Phosal 50PG 30/10/60). The procedure:
The pharmacokinetic profile of the phosphate compounds of formula (I) is evaluated in a lipid formulation and in aqueous solution in female SCID mice. This is compared to the pharmacokinetic profile of compounds of formula (I′) in a lipid formulation. More specifically, 4-[{[3-(6-{[(3S)-3-(morpholin-4-ylmethyl)-3,4-dihydroisoquinolin-2(1H)-yl]-carbonyl}-1,3-benzodioxol-5-yl)-5,6,7,8-tetrahydroindolizin-1-yl]carbonyl}(phenyl)-amino]phenyl disodium phosphate (also referred to as the compound of Example 1) was tested and compared to N-(4-hydroxyphenyl)-3-{6-[((3S)-3-(4-morpholinylmethyl)-3,4-dihydro-2(1H)-isoquinolinyl)carbonyl]-1,3-benzodioxol-5-yl}-N-phenyl-5,6,7,8-tetrahydro-1-indolizine carboxamide (also referred to as the drug from Example 1).
The compound of Example 1 is prepared in a mixture of anhydrous ethanol/polyethylene glycol 300/water (10/40/50, v/v/v) intended for administration by the p.o. route. The study is carried out in 2 groups of SCID mice to which the compound of Example 1 is administered under the following conditions: • Group 1: 3 mg/kg p.o. (gavage, 10 mL/kg), • Group 2: 25 mg/kg p.o. (gavage, 10 mL/kg).
Blood samples are taken at the following points in time (3 samples per animal and 3 animals for each point in time): 0.25 hr, 0.5 hr, 1 hr, 2 hrs, 6 hrs and 24 hrs after oral administration.
The compound of Example 1 is also administered by the oral route in an aqueous medium to SCID mice, under the following conditions: • Group 1: 30 mg/kg p.o. dissolved in 1 mM sodium carbonate solution (gavage, 10 mL/kg), • Group 2: 100 mg/kg p.o. in water (gavage, 10 mL/kg).
Blood samples are taken at the following points in time (3 animals for each point in time and 1 sample per animal): 0.25 hr, 0.5 hr, 1 hr, 2 hrs, 4 hrs, 6 hrs and 24 hrs after oral administration.
For all formulations of the compound of Example 1, the blood thereby collected is centrifuged and the plasma is transferred to tubes containing 1M hydrochloric acid. The plasma concentrations of the phosphate compound (prodrug) and its hydroxylated homologue (drug) are determined simultaneously using a method of liquid chromatography coupled with mass spectrometric detection (TFC-LC-MS/MS). The limit of detection for both entities is 0.5 ng/mL.
The drug from Example 1 is prepared in a mixture of anhydrous ethanol/polyethylene glycol 300/water (10/40/50, v/v/v) intended for administration by the p.o. route. The study is carried out in several groups of SCID mice to which the drug from Example 1 is administered under the following conditions: • Group 1: 3 mg/kg p.o. (gavage, 10 mL/kg), • Group 2: 30 mg/kg p.o. (gavage, 10 mL/kg), • Group 3: 25 mg/kg p.o. (gavage, 10 mL/kg), • Group 4: 100 mg/kg p.o. (gavage, 10 mL/kg).
Blood samples are taken at the following points in time (3 animals for each point in time and 3 samples per animal for Groups 1-2 and 1 sample per animal for Groups 3 and 4): • p.o.: before administration and then 0.25 hr, 0.5 hr, 0.75 hr, 1 hr, 2 hrs, 4 hrs, 6 hrs, 8 hrs, 16 hrs and 24 hrs after oral administration at 3 and 30 mg/kg, • p.o.: 0.5 hr, 2 hrs, 6 hrs, 16 hrs and 24 hrs after oral administration at 25 mg/kg and 0.5 hr, 1 hr, 2 hrs, 6 hrs, 16 hrs, 30 hrs and 48 hrs after oral administration at 100 mg/kg.
The plasma from the blood samples collected after administration of the lipid formulations of the drug from the compound of Example 1 are analysed by liquid chromatography coupled with mass spectrometric detection. The limit of quantification of the drug from the compound of Example 1 is less than or equal to 0.5 ng/mL.
Non-compartmental pharmacokinetic analysis is carried out on the mean values of the plasma concentrations of the compounds tested. […]

Where two headings read alike, the source gives them in different places.

For `C[C@@H]1Cc2ccccc2CN1C(=O)c1cc2c(cc1-c1cc(C(=O)N(c3ccc(O)cc3)c3cnc4c(ccn4C)c3)c3ccccn13)OCO2` [Drug from Example 4, N-(4-Hydroxyphenyl)-3-(6-{[(3R)-3-methyl-3,4-dihydroisoquinolin-2(1H)-yl]carbonyl}-1,3-benzodioxol-5-yl)-N-(1-methyl-1H-pyrrolo[2,3-b]pyridin-5-yl)-indolizine-1-carboxamide], in data set [1], the Papp A→B at 120 min worked out at 0.21 ×10⁻⁶ cm/s. Further, in the data set with human Caco-2 cells, the “Yield (experiment yield), the drug after incubation of the drug” value (“Yield (experiment yield), the drug” for short) is listed as “Yield (%) = 20” and the “Fabs (predicted absorbed fraction in humans), the drug after incubation of the drug” value is listed as “Fabs (%) = 46”.

As to `C[C@@H]1Cc2ccccc2CN1C(=O)c1cc2c(cc1-c1cc(C(=O)N(c3ccncc3)c3ccc(O)cc3)c3ccccn13)OCO2` [Drug from Example 5, N-(4-Hydroxyphenyl)-3-(6-{[(3R)-3-methyl-3,4-dihydroisoquinolin-2(1H)-yl]-carbonyl}-1,3-benzodioxol-5-yl)-N-(pyridin-4-yl)indolizine-1-carboxamide], the Papp A→B at 120 min in data set [1] came out at 0.7 ×10⁻⁶ cm/s. For the same molecule, in the data set with human Caco-2 cells, the “Yield (experiment yield), the drug” value is on record as “Yield (%) = 34” and the “Fabs (predicted absorbed fraction in humans), the drug after incubation of the drug” value is “Fabs (%) = 68”.

For orientation: Cmax means the peak of the concentration-time curve. Usually Tmax stands for the time at which the peak concentration occurs. In the case of `Cc1c(N(C(=O)c2cc(-c3cc(Cl)ccc3C(=O)N3Cc4ccccc4C[C@H]3CN3CCOCC3)n(C)c2C)c2ccc(O)cc2)cc(C#N)n1C` [Drug from Example 20, 5-(5-Chloro-2-{[(3S)-3-(morpholin-4-ylmethyl)-3,4-dihydroisoquinolin-2(1H)-yl]carbonyl}phenyl)-N-(5-cyano-1,2-dimethyl-1H-pyrrol-3-yl)-N-(4-hydroxyphenyl)-1,2-dimethyl-1H-pyrrole-3-carboxamide], in data set [2], the “Solubility at 10 μM” value is listed as “Soluble”, the “Solubility at 20 μM” value is “Insoluble”, the “Solubility at 50 μM” value was “Insoluble” and the “Solubility at 100 μM” value is given as “Insoluble”. In addition, the AUC(0-t) in data set [3] (Drug from Example 20 administered 3 mg/kg p.o., read-out: AUCt, compound measured: Drug from Example 20) turned out to be 55 ng·h/mL. In data set [3] (Drug from Example 20 administered 3 mg/kg p.o., read-out: Cmax, compound measured: Drug from Example 20), the Cmax turned out to be 39 ng/mL. In addition, in data set [3] (Drug from Example 20 administered 3 mg/kg p.o., read-out: Tmax, compound measured: Drug from Example 20), the time to peak (Tmax) was 1 h. For the same molecule, in data set [3] (Drug from Example 20 administered 25 mg/kg p.o., read-out: AUCt, compound measured: Drug from Example 20), the AUC(0-t) was 10200 ng·h/mL. In addition, in data set [3] (Drug from Example 20 administered 25 mg/kg p.o., read-out: Cmax, compound measured: Drug from Example 20), the maximum concentration (Cmax) worked out at 5520 ng/mL. Further, in data set [3] (Drug from Example 20 administered 25 mg/kg p.o., read-out: Tmax, compound measured: Drug from Example 20), the time to peak (Tmax) stood at 2 h. The Papp A→B at 120 min in data set [1] amounted to 0.29 ×10⁻⁶ cm/s. In the data set with human Caco-2 cells, the “Yield (experiment yield), the drug” value was “Yield (%) = 91” and the “Fabs (predicted absorbed fraction in humans), the drug after incubation of the drug” value is “Fabs (%) = 25”.

As for `Cc1c(C(=O)N(c2ccc(O)cc2)c2cc(C#N)n(C)c2)cc(-c2cc(Cl)ccc2C(=O)N2Cc3ccccc3C[C@H]2CN2CCOCC2)n1C` [Drug from Example 21, 5-(5-Chloro-2-{[(3S)-3-(morpholin-4-ylmethyl)-3,4-dihydroisoquinolin-2(1H)-yl]carbonyl}phenyl)-N-(5-cyano-1-methyl-1H-pyrrol-3-yl)-N-(4-hydroxyphenyl)-1,2-dimethyl-1H-pyrrole-3-carboxamide], the Papp A→B at 120 min in data set [1] came to 0.27 ×10⁻⁶ cm/s. Besides, in the data set with human Caco-2 cells, the “Yield (experiment yield), the drug” value is on record as “Yield (%) = 82” and the “Fabs (predicted absorbed fraction in humans), the drug after incubation of the drug” value was “Fabs (%) = 24”.

Regarding `Cc1c(N(C(=O)c2cc(-c3cc(F)ccc3C(=O)N3Cc4ccccc4C[C@H]3CN3CCOCC3)n(C)c2C)c2ccc(O)cc2)cc(C#N)n1C` [Drug from Example 25, N-(5-Cyano-1,2-dimethyl-1H-pyrrol-3-yl)-5-(5-fluoro-2-{[(3S)-3-(morpholin-4-ylmethyl)-3,4-dihydroisoquinolin-2(1H)-yl]carbonyl}phenyl)-N-(4-hydroxyphenyl)-1,2-dimethyl-1H-pyrrole-3-carboxamide], in data set [2], the “Solubility at 10 μM” value is “Soluble”, the “Solubility at 20 μM” value is recorded as “Soluble”, the “Solubility at 50 μM” value was “Insoluble” and the “Solubility at 100 μM” value is “Insoluble”. Further, the AUC(0-t) in data set [3] (Drug from Example 25 administered 3 mg/kg p.o., read-out: AUCt, compound measured: Drug from Example 25) amounted to 37 ng·h/mL. In addition, the Cmax in data set [3] (Drug from Example 25 administered 3 mg/kg p.o., read-out: Cmax, compound measured: Drug from Example 25) is 33 ng/mL. Besides, in data set [3] (Drug from Example 25 administered 3 mg/kg p.o., read-out: Tmax, compound measured: Drug from Example 25), the time of peak concentration (Tmax) worked out at 1 h. In data set [3] (Drug from Example 25 administered 25 mg/kg p.o., read-out: AUCt, compound measured: Drug from Example 25), the AUC(0-t) is 5700 ng·h/mL. In data set [3] (Drug from Example 25 administered 25 mg/kg p.o., read-out: Cmax, compound measured: Drug from Example 25), the Cmax turned out to be 3000 ng/mL. Moreover, the time to peak (Tmax) in data set [3] (Drug from Example 25 administered 25 mg/kg p.o., read-out: Tmax, compound measured: Drug from Example 25) worked out at 1 h. In addition, in data set [1], the Papp A→B at 120 min is 0.49 ×10⁻⁶ cm/s. Further, in the data set with human Caco-2 cells, the “Yield (experiment yield), the drug” value is given as “Yield (%) = 100” and the “Fabs (predicted absorbed fraction in humans), the drug after incubation of the drug” value is “Fabs (%) = 40”.
